Assay results taken from publication PMC4207771, “Identification and Characterization of Novel Renal Sensory Receptors” (PLoS ONE, 2014).
Where two headings read alike, the source gives them in different places.

How the values were obtained:
[1] = test system: Olfr545; assay: dual-luciferase (cAMP/CREB reporter) ligand screen, Olfr545 in HEK293T cells; assay type: cell-based, mouse; design: key to Olfr545 response in dual-luciferase assay: ‘+’ or ‘–‘ in each column indicates if the olfactory receptor responded or had no effect to that specific chemical; -: ‘+’ or ‘–‘ in each column indicates if the olfactory receptor responded or had no effect to that specific chemical; conditions: chemicals tested individually, screened at 500uM (* also at 100uM)
[2] = test system: Olfr693; assay: dual-luciferase (cAMP/CREB reporter) ligand screen, Olfr693 in HEK293T cells; assay type: cell-based, mouse; design: key: ‘+’ or ‘–‘ in each column indicates if the olfactory receptor responded or had no effect to that specific chemical; -: ‘+’ or ‘–‘ in each column indicates if the olfactory receptor responded or had no effect to that specific chemical; conditions: chemicals tested individually, screened at 500uM (* also at 100uM)
[3] = target: T1, Olfr691 (Mus musculus, UniProt Q8VGW5); assay: dual-luciferase (cAMP/CREB reporter) ligand screen, Olfr691 in HEK293T cells; assay type: cell-based; conditions: for Olfr691 response in dual-luciferase assay: chemicals tested individually, screened at 500uM (* also at 100uM); for Relative response (% of 4-pentenoate response) at 500 µM: HEK-293T, 4 h, 0.5 mM ligand, normalized to the response of Olfr691 to the strongest ligand
T1 construct: Lucy (N); expressed in transfected cells; host or cells: HEK293T, co-transfected with RTP1S
T1 sequence (Q8VGW5 1-322): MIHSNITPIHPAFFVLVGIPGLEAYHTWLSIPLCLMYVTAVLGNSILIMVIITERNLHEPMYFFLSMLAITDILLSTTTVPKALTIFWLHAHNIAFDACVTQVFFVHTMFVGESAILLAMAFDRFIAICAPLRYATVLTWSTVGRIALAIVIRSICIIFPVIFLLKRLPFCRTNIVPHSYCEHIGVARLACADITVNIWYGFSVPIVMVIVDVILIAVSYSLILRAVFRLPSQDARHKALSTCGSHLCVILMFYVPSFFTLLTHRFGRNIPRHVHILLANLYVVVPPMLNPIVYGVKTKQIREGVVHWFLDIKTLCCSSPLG

[4] = test system: Olfr99; assay: dual-luciferase (cAMP/CREB reporter) ligand screen, Olfr99 in HEK293T cells; assay type: cell-based, mouse; design: key: ‘+’ or ‘–‘ in each column indicates if the olfactory receptor responded or had no effect to that specific chemical; -: ‘+’ or ‘–‘ in each column indicates if the olfactory receptor responded or had no effect to that specific chemical; conditions: chemicals tested individually, screened at 500uM (* also at 100uM)
[5] = target: T2, Olfr31 (Mus musculus, UniProt Q3KPA7); assay: dual-luciferase (cAMP/CREB reporter) ligand screen, Olfr31 in HEK293T cells; assay type: cell-based; conditions: chemicals tested individually, screened at 500uM (* also at 100uM)
T2 construct: expressed in transfected cells; host or cells: HEK293T, co-transfected with RTP1S
T2 sequence (Q3KPA7 1-317): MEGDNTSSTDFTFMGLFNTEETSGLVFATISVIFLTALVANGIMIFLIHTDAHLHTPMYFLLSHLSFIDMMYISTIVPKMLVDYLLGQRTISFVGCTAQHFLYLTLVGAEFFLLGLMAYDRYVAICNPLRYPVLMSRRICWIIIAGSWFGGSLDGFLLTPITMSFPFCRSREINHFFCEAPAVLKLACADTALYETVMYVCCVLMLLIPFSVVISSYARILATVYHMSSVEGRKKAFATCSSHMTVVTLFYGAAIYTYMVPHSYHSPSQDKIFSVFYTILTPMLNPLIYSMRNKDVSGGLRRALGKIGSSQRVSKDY

C=CC(C)(O)CCC=C(C)CCC=C(C)C (mixture of isomers) [nerolidol]
Olfr545 response in dual-luciferase assay [1]: -
Olfr693 response in dual-luciferase assay [2]: -
Olfr691 response in dual-luciferase assay [3]: -
Olfr99 response in dual-luciferase assay [4]: -
Olfr31 response in dual-luciferase assay [5]: -

C=C(C)C1CC=C(C)CC1 (single isomer, unassigned; (+)) [(+)-Limonene]
Olfr545 response in dual-luciferase assay [1]: -
Olfr693 response in dual-luciferase assay [2]: -
Olfr691 response in dual-luciferase assay [3]: -
Olfr99 response in dual-luciferase assay [4]: -
Olfr31 response in dual-luciferase assay [5]: -

Fc1ccc(F)c(F)c1 [1,2,4 trifluorobenzene]
Olfr545 response in dual-luciferase assay [1]: -
Olfr693 response in dual-luciferase assay [2]: -
Olfr691 response in dual-luciferase assay [3]: -
Olfr99 response in dual-luciferase assay [4]: -
Olfr31 response in dual-luciferase assay [5]: -

SCCS [1,2-ethanedithiol]
Olfr545 response in dual-luciferase assay [1]: -
Olfr693 response in dual-luciferase assay [2]: -
Olfr691 response in dual-luciferase assay [3]: -
Olfr99 response in dual-luciferase assay [4]: -
Olfr31 response in dual-luciferase assay [5]: -

COc1cccc(OC)c1 [1,3-Dimethoxybenzene]
Olfr545 response in dual-luciferase assay [1]: -
Olfr693 response in dual-luciferase assay [2]: -
Olfr691 response in dual-luciferase assay [3]: -
Olfr99 response in dual-luciferase assay [4]: -
Olfr31 response in dual-luciferase assay [5]: -

SCCCCS [1,4-butanedithiol]
Olfr545 response in dual-luciferase assay [1]: -
Olfr693 response in dual-luciferase assay [2]: -
Olfr691 response in dual-luciferase assay [3]: -
Olfr99 response in dual-luciferase assay [4]: -
Olfr31 response in dual-luciferase assay [5]: -

O=C1CCC(=O)CC1 [1,4-cyclohexanedione]
Olfr545 response in dual-luciferase assay [1]: -
Olfr693 response in dual-luciferase assay [2]: -
Olfr691 response in dual-luciferase assay [3]: -
Olfr99 response in dual-luciferase assay [4]: -
Olfr31 response in dual-luciferase assay [5]: -

SCCCCCCS [1,6-hexanedithiol]
Olfr545 response in dual-luciferase assay [1]: -
Olfr693 response in dual-luciferase assay [2]: -
Olfr691 response in dual-luciferase assay [3]: -
Olfr99 response in dual-luciferase assay [4]: -
Olfr31 response in dual-luciferase assay [5]: -

CCCCCCCO [1-Heptanol]
Olfr545 response in dual-luciferase assay [1]: -
Olfr693 response in dual-luciferase assay [2]: -
Olfr691 response in dual-luciferase assay [3]: -
Olfr99 response in dual-luciferase assay [4]: -
Olfr31 response in dual-luciferase assay [5]: -

C=CC(=O)CCCCC [1-Octen-3-one]
Olfr545 response in dual-luciferase assay [1]: -
Olfr693 response in dual-luciferase assay [2]: -
Olfr691 response in dual-luciferase assay [3]: -
Olfr99 response in dual-luciferase assay [4]: -
Olfr31 response in dual-luciferase assay [5]: -

CCC(C)S (centres unmarked) [1-methyl-1-propanethiol]
Olfr545 response in dual-luciferase assay [1]: -
Olfr693 response in dual-luciferase assay [2]: -
Olfr691 response in dual-luciferase assay [3]: -
Olfr99 response in dual-luciferase assay [4]: -
Olfr31 response in dual-luciferase assay [5]: -

CCCCCCCCO [1-octanol]
Olfr545 response in dual-luciferase assay [1]: -
Olfr693 response in dual-luciferase assay [2]: -
Olfr691 response in dual-luciferase assay [3]: -
Olfr99 response in dual-luciferase assay [4]: -
Olfr31 response in dual-luciferase assay [5]: -

CC(O)C(C)O (centres unmarked) [2,3-butanediol]
Olfr545 response in dual-luciferase assay [1]: -
Olfr693 response in dual-luciferase assay [2]: -
Olfr691 response in dual-luciferase assay [3]: -
Olfr99 response in dual-luciferase assay [4]: -
Olfr31 response in dual-luciferase assay [5]: -

CCCC(=O)C(C)=O [2,3-hexadione]
Olfr545 response in dual-luciferase assay [1]: -
Olfr693 response in dual-luciferase assay [2]: -
Olfr691 response in dual-luciferase assay [3]: -
Olfr99 response in dual-luciferase assay [4]: -
Olfr31 response in dual-luciferase assay [5]: -

Cc1ccc(C)s1 [2,5-Dimethylthiophene]
Olfr545 response in dual-luciferase assay [1]: -
Olfr693 response in dual-luciferase assay [2]: -
Olfr691 response in dual-luciferase assay [3]: -
Olfr99 response in dual-luciferase assay [4]: -
Olfr31 response in dual-luciferase assay [5]: -

Cc1cncc(C)n1 [2,6-Dimethylpyrazine]
Olfr545 response in dual-luciferase assay [1]: -
Olfr693 response in dual-luciferase assay [2]: -
Olfr691 response in dual-luciferase assay [3]: -
Olfr99 response in dual-luciferase assay [4]: -
Olfr31 response in dual-luciferase assay [5]: -

CCCCCC(C)O (centres unmarked) [2-Heptanol]
Olfr545 response in dual-luciferase assay [1]: -
Olfr693 response in dual-luciferase assay [2]: -
Olfr691 response in dual-luciferase assay [3]: -
Olfr99 response in dual-luciferase assay [4]: -
Olfr31 response in dual-luciferase assay [5]: -

CCCC1CCOC(C)S1 (centres unmarked) [2-Methyl-4-propyl-1,3-oxathiane]
Olfr545 response in dual-luciferase assay [1]: -
Olfr693 response in dual-luciferase assay [2]: -
Olfr691 response in dual-luciferase assay [3]: -
Olfr99 response in dual-luciferase assay [4]: -
Olfr31 response in dual-luciferase assay [5]: -

O=C1Cc2ccccc2O1 [2-cumaranon]
Olfr545 response in dual-luciferase assay [1]: -
Olfr693 response in dual-luciferase assay [2]: -
Olfr691 response in dual-luciferase assay [3]: -
Olfr99 response in dual-luciferase assay [4]: -
Olfr31 response in dual-luciferase assay [5]: -

CCCCC(CC)C(=O)O (centres unmarked) [2-ethylhexanoate]
Olfr545 response in dual-luciferase assay [1]: -
Olfr693 response in dual-luciferase assay [2]: -
Relative response (% of 4-pentenoate response) at 500 µM [3]: 76 ± 3.6%
Olfr691 response in dual-luciferase assay [3]: +
Olfr99 response in dual-luciferase assay [4]: -
Olfr31 response in dual-luciferase assay [5]: -

CCCCCC(C)=O [2-heptanone]
Olfr545 response in dual-luciferase assay [1]: -
Olfr693 response in dual-luciferase assay [2]: -
Olfr691 response in dual-luciferase assay [3]: -
Olfr99 response in dual-luciferase assay [4]: -
Olfr31 response in dual-luciferase assay [5]: -

Cc1ccco1 [2-methylfuran]
Olfr545 response in dual-luciferase assay [1]: -
Olfr693 response in dual-luciferase assay [2]: -
Olfr691 response in dual-luciferase assay [3]: -
Olfr99 response in dual-luciferase assay [4]: -
Olfr31 response in dual-luciferase assay [5]: -

CC(C)CCO [3-methyl-1-butanol]
Olfr545 response in dual-luciferase assay [1]: -
Olfr693 response in dual-luciferase assay [2]: -
Olfr691 response in dual-luciferase assay [3]: -
Olfr99 response in dual-luciferase assay [4]: -
Olfr31 response in dual-luciferase assay [5]: -

CCCCCC(=O)CC [3-octanone]
Olfr545 response in dual-luciferase assay [1]: -
Olfr693 response in dual-luciferase assay [2]: -
Olfr691 response in dual-luciferase assay [3]: -
Olfr99 response in dual-luciferase assay [4]: -
Olfr31 response in dual-luciferase assay [5]: -

C=CCCC(=O)O [4-pentenoic acid]
Olfr545 response in dual-luciferase assay [1]: -
Olfr693 response in dual-luciferase assay [2]: -
Relative response (% of 4-pentenoate response) at 500 µM [3]: 100 ± 10.6%
EC50 ([3]; Olfr691 co-expressed with RTP1S in HEK293T cells, 10 µM to 7.5 mM): 901 µM
Olfr691 response in dual-luciferase assay [3]: +
Olfr691 response (in words) ([3]; luciferase assay, co-expressed with RTP1S, listed as 4-Pentenoate): induced the strongest response
Olfr691 response (in words) ([3]; luciferase assay, co-expressed with RTP1S, listed as 4-pentenoate): induced the strongest cAMP responses at all doses
Olfr99 response in dual-luciferase assay [4]: -
Olfr31 response in dual-luciferase assay [5]: -

CC(C)(C)C1CCC(O)CC1 (centres unmarked) [4-tert-butylcyclohexanol]
Olfr545 response in dual-luciferase assay [1]: -
Olfr693 response in dual-luciferase assay [2]: -
Olfr691 response in dual-luciferase assay [3]: -
Olfr99 response in dual-luciferase assay [4]: -
Olfr31 response in dual-luciferase assay [5]: -

O=C1CCCCCCCCCCCCCCCO1 [16-hexadecanolide]
Olfr545 response in dual-luciferase assay [1]: -
Olfr693 response in dual-luciferase assay [2]: -
Olfr691 response in dual-luciferase assay [3]: -
Olfr99 response in dual-luciferase assay [4]: -
Olfr31 response in dual-luciferase assay [5]: -

C=C(C)[C@@H]1CC[C@@H](C)C(=O)C1 [(+)Dihydrocarvone]
Olfr545 response in dual-luciferase assay [1]: -
Olfr693 response in dual-luciferase assay [2]: -
Olfr691 response in dual-luciferase assay [3]: -
Olfr99 response in dual-luciferase assay [4]: -
Olfr31 response in dual-luciferase assay [5]: -

C=C[C@H](O)CCCCC [(R)-1-Octen-3-ol]
Olfr545 response in dual-luciferase assay [1]: -
Olfr693 response in dual-luciferase assay [2]: -
Olfr691 response in dual-luciferase assay [3]: -
Olfr99 response in dual-luciferase assay [4]: -
Olfr31 response in dual-luciferase assay [5]: -

C[C@]12CC[C@@H]3c4ccc(O)cc4CC[C@H]3[C@@H]1CC[C@@H]2O [estradiol, reference compound]
Olfr545 response in dual-luciferase assay [1]: -
Olfr693 response in dual-luciferase assay [2]: -
Olfr691 response in dual-luciferase assay [3]: -
Olfr99 response in dual-luciferase assay [4]: -

O=CO [formate]
Olfr691 response (in words) [3]: not including

CC(C)CC(=O)O [isovaleric acid]
Olfr545 response in dual-luciferase assay [1]: -
Olfr693 response in dual-luciferase assay [2]: -
Olfr99 response in dual-luciferase assay [4]: -
